Experimental data published in ChEMBL document CHEMBL3232987, “Investigation of Ugi-4CC derived 1H-tetrazol-5-yl-(aryl) methyl piperazinyl-6-fluoro-4-oxo-1,4-dihydroquinoline-3-carboxylic acid: synthesis, biology and 3D-QSAR analysis” (Eur J Med Chem, 2014).
Values after ≈ are worked out from the molar mass of the structure shown.

Assays:
Staphylococcus aureus [1] = test: Antibacterial activity against gentamicin-resistant Staphylococcus aureus ATCC 33592 after 24 hrs by spectrophotometric analysis; type: functional, organism-based; conditions: Staphylococcus aureus, ATCC 33592, 24 h; for IC50: read-out: IC50
Staphylococcus aureus [2] = test: Antibacterial activity against Staphylococcus aureus ATCC 25923 after 24 hrs by spectrophotometric analysis; type: functional, organism-based; conditions: Staphylococcus aureus, ATCC 25923, 24 h; for IC50: read-out: IC50
Staphylococcus aureus [3] = test: Antibacterial activity against Staphylococcus aureus ATCC 29213 after 24 hrs by spectrophotometric analysis; type: functional, organism-based; conditions: Staphylococcus aureus, ATCC 29213, 24 h; for IC50: read-out: IC50
Staphylococcus aureus [4] = test: Antibacterial activity against gentamicin-resistant Staphylococcus aureus ATCC 33592 by NCCLS two-fold dilution method; type: functional
Staphylococcus aureus [5] = test: Antibacterial activity against Staphylococcus aureus ATCC 29213 by NCCLS two-fold dilution method; type: functional
Staphylococcus aureus [6] = test: Antibacterial activity against methicillin-resistant Staphylococcus aureus ATCC 700699 by NCCLS two-fold dilution method; type: functional
Staphylococcus aureus [7] = test: Antibacterial activity against methicillin-resistant Staphylococcus aureus ATCC 700699 after 24 hrs by spectrophotometric analysis; type: functional, organism-based; conditions: Staphylococcus aureus, ATCC 700699, 24 h; for IC50: read-out: IC50
Staphylococcus aureus [8] = test: Antibacterial activity against Staphylococcus aureus ATCC 25923 by NCCLS two-fold dilution method; type: functional; conditions: for MIC: Staphylococcus aureus, ATCC 25923

Row | SMILES | MIC (Staphylococcus aureus [1]) [µg/mL] | IC50 (Staphylococcus aureus [1]) [µg/mL] | MIC (Staphylococcus aureus [2]) [µg/mL] | IC50 (Staphylococcus aureus [2]) [µg/mL] | MIC (Staphylococcus aureus [3]) [µg/mL] | IC50 (Staphylococcus aureus [3]) [µg/mL] | MIC (Staphylococcus aureus [4]) [µg/mL] | MIC (Staphylococcus aureus [5]) [µg/mL] | MIC (Staphylococcus aureus [6]) [µg/mL] | MIC (Staphylococcus aureus [7]) [µg/mL] | IC50 (Staphylococcus aureus [7]) [µg/mL] | -logMIC (Staphylococcus aureus [8]) | MIC (Staphylococcus aureus [8]) [µg/mL]
1 | O=C(O)c1cn(Cc2ccc(C(F)(F)F)cc2)c2cc(N3CCN(C(c4ccccc4)c4nnnn4C4CCCCC4)CC3)c(F)cc2c1=O (configuration not stated) | 40.5 (≈ 58.7 µM) | 21 (≈ 30.4 µM) | 17.5 (≈ 25.4 µM) | 5.2 (≈ 7.54 µM) | 4.4 (≈ 6.38 µM) | 2.2 (≈ 3.19 µM) | 25 (≈ 36.2 µM) | 6.25 (≈ 9.06 µM) | > 50 | > 50 | > 50 | 4.741 | 12.5 (≈ 18.1 µM)
2 | O=C(O)c1cn(Cc2ccc(C(F)(F)F)cc2)c2cc(N3CCN(C(c4ccncc4)c4nnnn4C4CCCCC4)CC3)c(F)cc2c1=O (configuration not stated) | > 50 | 50 (≈ 72.4 µM) | 50 (≈ 72.4 µM) | > 50 | 50 (≈ 72.4 µM) | > 50 | > 50 | 50 (≈ 72.4 µM) | 50 (≈ 72.4 µM) | 50 (≈ 72.4 µM) | > 50 | 4.14 | 50 (≈ 72.4 µM)
3 | O=C(O)c1cn(Cc2ccc(C(F)(F)F)cc2)c2cc(N3CCN(C(c4ccc(F)cc4)c4nnnn4C4CCCCC4)CC3)c(F)cc2c1=O (configuration not stated) | > 50 | > 50 | 12.5 (≈ 17.7 µM) | 5.2 (≈ 7.35 µM) | > 50 | > 50 | > 50 | > 50 | > 50 | > 50 | > 50 | 4.752 | 12.5 (≈ 17.7 µM)
4 | COc1ccc(C(c2nnnn2C(C)(C)C)N2CCN(c3cc4c(cc3F)c(=O)c(C(=O)O)cn4Cc3ccc(C(F)(F)F)cc3)CC2)c2ccccc12 (configuration not stated) | > 50 | > 50 | > 50 | 50 (≈ 67.2 µM) | > 50 | > 50 | > 50 | > 50 | > 50 | 50 (≈ 67.2 µM) | 50 (≈ 67.2 µM) | 4.172 | 50 (≈ 67.2 µM)
5 | CCn1cc(C(=O)O)c(=O)c2cc(F)c(N3CCN(C(c4ccc(F)cc4)c4nnnn4C4CCCCC4)CC3)cc21 (configuration not stated) | 50 (≈ 86.6 µM) | 50 (≈ 86.6 µM) | 2.1 (≈ 3.64 µM) | 0.5 (≈ 0.866 µM) | > 50 | 50 (≈ 86.6 µM) | 50 (≈ 86.6 µM) | 50 (≈ 86.6 µM) | 50 (≈ 86.6 µM) | 50 (≈ 86.6 µM) | 50 (≈ 86.6 µM) | 5.568 | 1.56 (≈ 2.7 µM)
6 | CCn1cc(C(=O)O)c(=O)c2cc(F)c(N3CCN(C(c4cccc5ccccc45)c4nnnn4C4CCCCC4)CC3)cc21 (configuration not stated) | 4.2 (≈ 6.89 µM) | 1.6 (≈ 2.62 µM) | 1.4 (≈ 2.3 µM) | 0.77 (≈ 1.26 µM) | 2.9 (≈ 4.76 µM) | 1.6 (≈ 2.62 µM) | 3.12 (≈ 5.12 µM) | 6.25 (≈ 10.3 µM) | 25 (≈ 41 µM) | 8.2 (≈ 13.4 µM) | 3.7 (≈ 6.07 µM) | 5.29 | 3.12 (≈ 5.12 µM)
7 | CC(C)(C)n1nnnc1C(c1cccc2ccccc12)N1CCN(c2cc3c(cc2F)c(=O)c(C(=O)O)cn3Cc2ccc(C(F)(F)F)cc2)CC1 (configuration not stated) | > 50 | > 50 | 50 (≈ 70.1 µM) | 50 (≈ 70.1 µM) | 50 (≈ 70.1 µM) | > 50 | 50 (≈ 70.1 µM) | 50 (≈ 70.1 µM) | 50 (≈ 70.1 µM) | 50 (≈ 70.1 µM) | 50 (≈ 70.1 µM) | 4.455 | 50 (≈ 70.1 µM)
8 | CC(C)(C)n1nnnc1C(c1ccco1)N1CCN(c2cc3c(cc2F)c(=O)c(C(=O)O)cn3Cc2ccc(C(F)(F)F)cc2)CC1 (configuration not stated) | 50 (≈ 76.5 µM) | 50 (≈ 76.5 µM) | 50 (≈ 76.5 µM) | 50 (≈ 76.5 µM) | 50 (≈ 76.5 µM) | 50 (≈ 76.5 µM) | 12.5 (≈ 19.1 µM) | 25 (≈ 38.2 µM) | 50 (≈ 76.5 µM) | 50 (≈ 76.5 µM) | 50 (≈ 76.5 µM) |  | 50 (≈ 76.5 µM)
9 | COc1ccc(C(c2nnnn2C(C)(C)C)N2CCN(c3cc4c(cc3F)c(=O)c(C(=O)O)cn4Cc3ccc(C(F)(F)F)cc3)CC2)c(OC)c1OC (configuration not stated) | 50 (≈ 66.3 µM) | 50 (≈ 66.3 µM) | 50 (≈ 66.3 µM) | 50 (≈ 66.3 µM) | 50 (≈ 66.3 µM) | 50 (≈ 66.3 µM) | 50 (≈ 66.3 µM) | 50 (≈ 66.3 µM) | 50 (≈ 66.3 µM) | 50 (≈ 66.3 µM) | 50 (≈ 66.3 µM) | 4.178 | 50 (≈ 66.3 µM)
10 | COc1ccc(C(c2nnnn2C2CCCCC2)N2CCN(c3cc4c(cc3F)c(=O)c(C(=O)O)cn4Cc3ccc(C(F)(F)F)cc3)CC2)c2ccccc12 (configuration not stated) | > 50 | > 50 | > 50 | 50 (≈ 65 µM) | > 50 | > 50 | > 50 | > 50 | > 50 | > 50 | > 50 | 4.187 | 50 (≈ 65 µM)
11 | O=C(O)c1cn(Cc2ccc(C(F)(F)F)cc2)c2cc(N3CCN(C(c4cccc5ccccc45)c4nnnn4C4CCCCC4)CC3)c(F)cc2c1=O (configuration not stated) | > 50 | > 50 | > 50 | 50 (≈ 67.6 µM) | > 50 | > 50 | > 50 | > 50 | > 50 | > 50 | > 50 | 4.169 | 50 (≈ 67.6 µM)
